Assay results reported in article PMC7239824, “Impact of intracellular hemin on N-type inactivation of voltage-gated K^+ channels” (Pflugers Archiv, 2020).

Biological target: T1, hKvβ1.1 1-140 (Homo sapiens, UniProt Q14722)
T1 construct: gene KCNAB1; E. coli BL21(DE3) pRIL; NHS-dye labelled
T1 sequence (Q14722 1-140 isoform Q14722-2): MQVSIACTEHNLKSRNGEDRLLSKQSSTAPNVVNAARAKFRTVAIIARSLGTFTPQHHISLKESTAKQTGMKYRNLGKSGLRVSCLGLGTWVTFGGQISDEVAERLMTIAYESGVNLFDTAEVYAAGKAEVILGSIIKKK
Assay: microscale thermophoresis
Settings: read-out: binding constant

SMILES: C=CC1=C(C)C2=Cc3c(C=C)c(C)c4[n]3[Fe]([Cl])[n]3c(c(C)c(CCC(=O)O)c3=CC3=NC(=C4)C(C)=C3CCC(=O)O)=CC1=N2 [hemin]
- Kd: 98 ± 14 nM
